Test results from patent US11981655B1, “3-(4,5-diphenyl-2-(pyridin-3-yl)-1H-imidazol-1-yl)-N,N-dimethylpropan-1-amine as an anticancer compound” (KING FAISAL UNIVERSITY, priority 2023, dated 2024).

Legend:
[1] = tested on: human prostate cancer cells (PC3); test: Cytotoxicity by SRB assay, PC3 cells; format: cell-based; settings: 72 h, 0.01 μM to 100 μM
Method: (§1) The human prostate cancer cells (PC3) and human osteosarcoma cells (MG-63) were obtained from Nawah Scientific Inc. (Mokatam, Cairo, Egypt) and cultured in DMEM (Dulbecco's modified eagle's medium), Gibco, USA, supplemented with fetal bovine serum (FBS) at a concentration of 10% and 100 U/mL of penicillin and streptomycin (PS). The Cells were incubated at 37° C. in a humidified environment that contained 5% CO2.
(§2) Cells were seeded in 96-well plates as aliquots of 100 μL cell suspension and incubated in a complete media for 24 h. Afterward, cells were treated with 2-(1-(2-hydroxypropyl)-4,5-diphenyl-1H-imidazol-2-yl)pyridine at diverse concentrations ranging from 0.01 μM to 100 μM for 72 h. Then, cells were fixed at 4° C. for one hour with 150 μL of 10% trichloroacetic acid (TCA). After washing the cells five times with distilled water, 70 μL of sulforhodamine (SRB) solution (0.4% w/v) was added and incubated for 10 min at room temperature in a dark place. […] Then, 150 μL of Tris pH 10.5 (10 mM) was added, and the absorbance was measured at 540 nm using a BMG LABTECH®-FLUOstar Omega microplate reader (Ortenberg, Germany). Half maximal inhibitory concentrations (IC50) values were calculated for each experiment using GraphPad Prism 6 software. […]
(§3) The inhibition was calculated using the following equation: Inhibition %=100−Average Viability

[2] = tested on: human osteosarcoma cells (MG-63); test: Cytotoxicity by SRB assay, MG-63 cells; format: cell-based; settings: 72 h, 0.01 μM to 100 μM
Method: as §1, §2, §3

CN(C)CCCn1c(-c2cccnc2)nc(-c2ccccc2)c1-c1ccccc1 [3-(4,5-Diphenyl-2-(pyridin-3-yl)-1H-imidazol-1-yl)-N,N-dimethylpropan-1-amine]
antiproliferative activity [1]: excellent antiproliferative activities | melting point: 145 to 147 °C | antiproliferative activity [2]: excellent antiproliferative activities
